Experimental data from PubChem BioAssay (NCI).
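Grown in 96-well plates, cells were treated for 48 hours with each compound at five concentrations. Insufficient inhibition: endpoint recorded as highest concentration tested. Abbreviation: GI50, concentration required for 50% inhibition of growth. TGI is the concentration that stops growth completely.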

Legend:
Test in all cases: DTP human tumour cell line panel, 48 h
[1] = test system: 786-0 renal
[2] = test system: A498 renal
[3] = test system: ACHN renal
[4] = test system: BT-549 breast
[5] = test system: CAKI-1 renal
[6] = test system: CCRF-CEM leukemia
[7] = test system: DU-145 prostate
[8] = test system: HL-60(TB) leukemia
[9] = test system: HS 578T breast
[10] = test system: KM12 colon
[11] = test system: LOX IMVI melanoma
[12] = test system: M14 melanoma
[13] = test system: MALME-3M melanoma
[14] = test system: MDA-MB-231 breast
[15] = test system: MDA-MB-435
[16] = test system: MOLT-4 leukemia
[17] = test system: NCI-H226 lung
[18] = test system: NCI-H23 lung
[19] = test system: NCI/ADR-RES ovarian
[20] = test system: OVCAR-3 ovarian
[21] = test system: OVCAR-4 ovarian
[22] = test system: OVCAR-5 ovarian
[23] = test system: OVCAR-8 ovarian
[24] = test system: PC-3 prostate
[25] = test system: RPMI-8226 leukemia
[26] = test system: RXF 393 renal
[27] = test system: SF-268 CNS
[28] = test system: SF-539 CNS
[29] = test system: SK-MEL-28 melanoma
[30] = test system: SK-MEL-5 melanoma
[31] = test system: SK-OV-3 ovarian
[32] = test system: SNB-75 CNS
[33] = test system: SR leukemia
[34] = test system: SW-620 colon
[35] = test system: TK-10 renal
[36] = test system: UACC-62 melanoma
[37] = test system: UO-31 renal

Q: What does the source list for `CCCC[N+](CCCC)=c1ccc2nc3c(C)cc(N(CC)CC)cc3sc-2c1`?
A: GI50 [1]: 0.302 µM; TGI [1]: 1.44 µM; GI50 [2]: 0.236 µM; TGI [2]: 4.43 µM; GI50 [3]: 0.187 µM; TGI [3]: 1.06 µM; GI50 [4]: 0.225 µM; TGI [4]: 1.73 µM; GI50 [5]: 0.183 µM; TGI [5]: 1.1 µM; GI50 [6]: 0.0923 µM; TGI [6]: 3.42 µM; GI50 [7]: 0.307 µM; TGI [7]: 1.47 µM; GI50 [8]: 0.0995 µM; TGI [8]: 0.773 µM; GI50 [9]: 0.341 µM; TGI [9]: 2.29 µM; GI50 [10]: 0.113 µM; TGI [10]: 1.34 µM; GI50 [11]: 0.146 µM; TGI [11]: 1.13 µM; GI50 [12]: 0.338 µM; TGI [12]: 1.64 µM; GI50 [13]: 0.165 µM; TGI [13]: 0.429 µM; GI50 [14]: 0.247 µM; TGI [14]: 0.849 µM; GI50 [15]: 0.205 µM; TGI [15]: 1.2 µM; GI50 [16]: 0.0958 µM; TGI [16]: 3.14 µM; GI50 [17]: 0.265 µM; TGI [17]: 1.72 µM; GI50 [18]: 0.0601 µM; TGI [18]: 1.04 µM; GI50 [19]: 0.327 µM; TGI [19]: 1.84 µM; GI50 [20]: 0.12 µM; TGI [20]: 1.15 µM; GI50 [21]: 0.0517 µM; TGI [21]: 1.11 µM; GI50 [22]: 0.349 µM; TGI [22]: 1.61 µM; GI50 [23]: 0.0703 µM; TGI [23]: 2.16 µM; GI50 [24]: 0.0583 µM; TGI [24]: 1.55 µM; GI50 [25]: 0.0571 µM; TGI [25]: 1.58 µM; GI50 [26]: 0.322 µM; TGI [26]: 1.41 µM; GI50 [27]: 0.339 µM; TGI [27]: 1.78 µM; GI50 [28]: 0.192 µM; TGI [28]: 1.14 µM; GI50 [29]: 0.613 µM; TGI [29]: 2.03 µM; GI50 [30]: 0.0993 µM; TGI [30]: 0.403 µM; GI50 [31]: 0.28 µM; TGI [31]: 1.05 µM; GI50 [32]: 0.229 µM; TGI [32]: 1.1 µM; GI50 [33]: 0.0524 µM; TGI [33]: 1.97 µM; GI50 [34]: 0.245 µM; TGI [34]: 1.58 µM; GI50 [35]: 0.102 µM; TGI [35]: 1.58 µM; GI50 [36]: 0.29 µM; TGI [36]: 1.77 µM; GI50 [37]: 0.134 µM; TGI [37]: 0.804 µM
